We go through six compounds from patent US11466036B2, “Borate of azetidine derivative” (Chia Tai Tianqing Pharmaceutical Group Co., Ltd., priority 2018, dated 2022).

Data set [1] deals with MM1.S cells. Nature of the data set: In vitro anti-proliferation experiment for MM1.S cells (CellTiter-Glo). The data set is classed as cell-based. The note with it: Homo sapiens, 48 h, 2 days incubation, 0.3 nM-2000 nM. Here is the method: In Vitro Anti-Proliferation Experiment for MM1.S Cells
In this experiment, the effect of compounds on inhibiting cell proliferation was investigated by determining their effect on cell activity in vitro in the tumor cell line MM1.S.
MM1.S cells were seeded into a black 96-well cell culture plate at a density of 7,000 cells per well, and the plates were then incubated overnight in an incubator at 37° C., 5% CO2 and 100% relative humidity. Test compounds were added to the cell culture wells at a concentration (0.3 nM-2000 nM) and the plate was then put back into the incubator with vehicle control (DMSO added, no test compound) and blank control set. The plate was incubated for 2 days in an incubator at 37° C., 5% CO2 and 100% relative humidity. Samples were processed using a standard method of the Promega CellTiter-Glo luminescence cell activity detection kit (Promega-G7571) and luminescence signals were detected on a SpectraMax i3× of Molecular Devices plate reader. The inhibition rate of the test compound was calculated using the following formula: […]
(In general: Cellular ATP, detected with luciferase, serves as a proxy for viable cell number.)

A short description of data set [2]: Liver microsomal stability test, mouse. The data set is classed as in vitro ADME, CD-1 mice. The note with it: CD-1; mouse (M) liver microsomes; read-out: Liver microsomal stability (T1/2, min). How it is done: (§1) Experimental Example 2: Liver Microsomal Stability Test for Compounds
(§2) Test compounds were each co-incubated with liver microsomes from CD-1 mice, SD rats, and humans to evaluate the stability of the test compounds.
(§3) Preparation of test compound solution samples: a 10 mM DMSO solution of the example compound (5 μL) was added to a mixed solvent of DMSO (45 μL), methanol and water (450 μL, volume ratio of methanol and water was 1:1) to prepare a 100 μM test compound solution; 50 μL of the 100 μM test compound solution was added to 450 μL of 100 mM potassium phosphate buffer to give a 10 μM test compound solution.
(§4) The 10 μM test compound solution was preincubated with microsomes of three species (human, rat and mouse, respectively) for 10 minutes, and then reduced nicotinamide adenine dinucleotide phosphate (NADPH) regeneration system working solution was added to the incubation plate according to each time point to initiate the reaction, and finally at 0, 5, 10, 20, 30 and 60 minutes, stop solution (100% ACN) was added to the reaction plate to stop the reaction. The test compounds were determined using LC-MS/MS method.

Data set [3] can be described thus: Liver microsomal stability test, human. Particulars: human (H) liver microsomes; read-out: Liver microsomal stability (T1/2, min). The data set is classed as in vitro ADME. How it is done: as §1, §2, §3, §4
(In general: Liver microsomes are vesicles of endoplasmic reticulum, rich in cytochrome P450 enzymes.)

The subject of data set [4] is MDR1. Nature of the data set: Cell membrane permeability test on MDR1-MDCK II cells. The format is in vitro ADME. The note with it: dog; for efflux ratio at 150 min, 2 μM: MDCK-MDR1, pH 7.4, Papp B to A/Papp A to B; for Papp A→B at 150 min, 2 μM / Papp B→A at 150 min, 2 μM: MDCK-MDR1, pH=7.4. Here is the method: Experimental Example 3: Cell Membrane Permeability Test for Compounds
Test compounds were evaluated for cell membrane permeability on MDR1-MDCK II cells.
Test compounds (10 mM DMSO solution of compound) were each diluted with transfer buffer (HBSS with 10 mM Hepes, pH=7.4) and formulated into samples at a final concentration of 2 μM, and then bidirectional (A-B and B-A) administration was performed. After administration, the cell plate was incubated for 150 minutes in an incubator at 37° C., 5% CO2 and saturated humidity. After the 150 minutes of incubation, samples were collected and the concentrations of test compounds in the transfer samples were semi-quantitatively determined using LC-MS/MS method.

A short description of data set [5]: Liver microsomal stability test, rat. The note with it: SD; rat (R) liver microsomes; read-out: Liver microsomal stability (T1/2, min). The format is in vitro ADME, SD rats. Here is the method:
as §1, §2, §3, §4

A short description of data set [6]: Stability experiment (solid sample in stability boxes, content by HPLC). The data set is classed as physicochemical. Here is the method:
Experimental Example 4: Stability Experiment
About 50 mg of a sample was placed in a clean disposable petri dish and spread into a thin layer. The petri dish was covered with aluminum foil paper which was pricked with several small holes. The sample, in duplicate, was placed in stability boxes of 25° C.±2° C./60% RH±5% RH and 40° C.±2° C./75% RH±5% RH, respectively, and sampled at the planned time points, and the content of the compound was determined using the HPLC method, and the results are shown in Table 9.

For the compound `CC(C)C[C@H](NC(=O)CNC(=O)[C@@H]1CCN1c1ccc(C#N)cc1F)B(O)O` (single isomer, unassigned) [Compound 3-7], in data set [1], inhibition was half-maximal at 0.0906 µM (IC50).

For `CC(C)C[C@H](NC(=O)CNC(=O)[C@@H]1CCN1c1ccc(F)cc1F)B(O)O` (single isomer, unassigned) [Compound 4-9], in data set [2], the half-life was 67.4 min. Also, the half-life in data set [3] worked out at 67.4 min. Moreover, the IC50 – broadly, the concentration that inhibits the measured activity by half – in data set [1] came out at 0.001 µM. Further, in data set [4], the efflux ratio – broadly, a quotient of directional permeabilities that is used to spot active efflux – at 150 min, 2 μM was determined as 19.3; the Papp A→B (as a rule, the apparent permeability from the apical to the basolateral side of a cell layer) at 150 min, 2 μM is 0.38 ×10⁻⁶ cm/s; the Papp B→A (in general, the apparent permeability from the basolateral to the apical side of a cell layer) at 150 min, 2 μM came to 7.32 ×10⁻⁶ cm/s. Moreover, in data set [5], the half-life worked out at 43.1 min.

As for `CC(C)C[C@H](NC(=O)CNC(=O)[C@@H]1CCN1c1ccc(F)cc1)B(O)O` [Compound 1-9], the results for the half-life in data set [2], in data set [3] and in data set [5] were 43.5 min, 74.3 min and 42.1 min, respectively. For the same compound, in data set [1], the IC50 was found to be 0.0058 µM.

`CC(C)C[C@H](NC(=O)CNC(=O)[C@@H]1CCN1c1ncc(F)cc1F)B(O)O` [Compound 2-8] returned an IC50 in data set [1] of 0.024 µM.

For the compound `CC(C)C[C@H](NC(=O)CNC(=O)[C@@H]1CCN1c1nc(C(F)(F)F)cs1)B(O)O` [Compound 2-9], the half-life in data set [2] turned out to be 37.7 min. Moreover, the half-life in data set [3] is 75 min. In data set [1], this compound showed an IC50 of 0.0242 µM. For the same compound, in data set [4], the efflux ratio at 150 min, 2 μM was 9.33; the Papp A→B at 150 min, 2 μM amounted to 0.24 ×10⁻⁶ cm/s; the Papp B→A at 150 min, 2 μM stood at 2.24 ×10⁻⁶ cm/s. In addition, the half-life in data set [5] came out at 26.5 min.

As to `CC(C)C[C@H](NC(=O)CNC(=O)[C@@H]1CCN1c1ccc(F)cc1F)B1OC(=O)[C@H](CC(=O)O)O1` [Compound I-1], the “content of the compound” value is given as 98.6% in data set [6] (25° C./60% RH, Day 0); 97.8% in data set [6] (25° C./60% RH, Day 7); 100% in data set [6] (25° C./60% RH, Day 14); 100% in data set [6] (25° C./60% RH, Day 21); 100% in data set [6] (25° C./60% RH, Day 28); 98.6% in data set [6] (40° C./75% RH, Day 0). Further, the “content of the compound” value in data set [6] (40° C./75% RH, Day 7) is listed as 99.1%; in data set [6] (40° C./75% RH, Day 14) it was 98.5%; in data set [6] (40° C./75% RH, Day 21), 100%; in data set [6] (40° C./75% RH, Day 28), 100%. This compound had an IC50 in data set [1] of 0.013 µM.
